Test results as given in patent US20190119204A1, “ROR GAMMA (RORy) MODULATORS” (Lead Pharma Holding B.V., priority 2016, published 2019).
Values after ≈ are worked out from the molar mass of the structure shown. Where two headings read alike, the source gives them in different places.

Tests used:
[1] = Aqueous equilibrated solubility; type: physicochemical; details: thermodynamic from solid; aqueous phosphate buffer 50 mM pH 7.4, shaken overnight at RT; pH 7.5 = pH of the solubilized fraction
Protocol: The studied compound was accurately weighted with a target concentration of 2 mg/mL in an aqueous phosphate buffer (50 mM at pH=7.4). The solution was shaken overnight (rock'n roll shaker) at RT and protected from light (about 24 hrs). The solution was filtered in plate filter device (microplate Millipore “Solvinert” with integrated PTFE filter; 0.45 μm) and the filtrate was dosed by LC/UV method.
The studied compound was accurately weighted with a target concentration of 0.1 mg/mL in DMSO. The solution was sonicated at RT and protected from light. The reference solution was dosed by a LC/UV method and pH of the solubilized fraction was measured.

RORγ = molecular target: T1, RORγ (Homo sapiens, UniProt P51449); test: RORγ GAL4 reporter gene assay; type: cell-based; details: 293FT cells, luciferase readout; average of 5 experiments; read-out: RORγ GAL4 reporter gene assay pIC50 Average (converted)
T1 construct: expressed in transfected cells; host or cells: 293FT cells (Invitrogen), expression vector pFN26A (Promega)
T1 sequence (P51449 269-508 limits assumed): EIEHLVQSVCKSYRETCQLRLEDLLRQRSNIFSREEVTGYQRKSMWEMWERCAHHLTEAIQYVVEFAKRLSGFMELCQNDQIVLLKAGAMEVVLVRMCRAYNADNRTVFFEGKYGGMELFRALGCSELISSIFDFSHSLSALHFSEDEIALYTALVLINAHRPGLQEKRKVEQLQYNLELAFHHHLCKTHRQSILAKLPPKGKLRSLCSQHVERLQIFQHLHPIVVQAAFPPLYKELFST
Protocol: Examples 2-3 of the present […] application and example No. 37 from WO2015/082533 were tested for their ability to inhibit RORγ activity in a RORγ GAL4 reporter gene assay.
A GAL4 one-hybrid reporter system employing luciferase readout was established to determine inhibition of RORγ in 293FT cells. The RORγ ligand-binding domain (LBD) was fused to the yeast GAL4 DNA binding domain (DBD) and placed under the control of the human cytomegalovirus (CMV) immediate early promoter, using expression vector pFN26A (Promega) and standard recombinant DNA cloning methods. To serve as a control in the assay, a similar vector was generated in which the GAL4-DBD was fused to Herpes simplex virus protein 16 (VP16), a constitutive transcriptional activator.
To monitor the inhibitory effect of compounds on RORγ, a transcriptional reporter construct was used. The pGL4.35 vector (Promega) contains nine copies of the GAL4 Upstream Activator Sequence (UAS). […]
The day after transfection, cells were plated into 96 well plates, test compound was added and the plates were incubated overnight. Subsequently, the firefly luciferase activity was quantified using luciferase detection reagent and luminescence readout. […]
For compound screening, the cells were harvested (as described above) and counted. […]

[2] = system: IL-17A production in anti-CD3/anti-CD28 stimulated peripheral blood mononuclear cells (PBMCs); test: Peripheral blood mononuclear cell (PBMC) IL-17 assay; type: cell-based; details: 120 h, human PBMCs, 5 days, IL-17A AlphaLISA, average of 11 human donors, read-out: PBMC IL-17 assay pIC50 Average (converted)
Protocol: Examples 2-3 of the present application and example No.37 from WO2015/082533 were tested for their ability to inhibit the IL-17A production in anti-CD3/anti-CD28 stimulated peripheral blood mononuclear cells (PBMCs) isolated from human blood.
This assay is designed to measure the levels of IL-17A secreted from anti-CD3/anti-CD28 stimulated PBMCs with the aim of measuring the inhibition of RORγ mediated IL-17A production.
The assay medium consists of 90% RPMI 1640 (Lonza), 10% heat-inactivated fetal bovine serum (FBS, Lonza) and 100 U/mL penicillin/streptomycin solution.
Anti-CD3 antibody (BD Pharmingen) was diluted to 10 μg/ml in PBS (Lonza). 30 μL of 10 μg/ml anti-CD3 solution was added to the inner 60 wells of a 96-well cell culture treated U-bottom plate (Greiner). Plates were incubated overnight (16-24 hours) at 37° C. and 5% CO2. […]
After incubation, the plates were spun down at 1500 rpm for 4 minutes and the supernatant was collected. Subsequently, the IL-17A levels in the supernatants was determined using an IL-17A AlphaLISA kit (Perkin Elmer) according to the manufacturer's protocol.
The half maximum inhibitory concentration (IC50) values for the test compounds were calculated from the IL-17A signal using GraphPad Prism software (GraphPad Software).

CYP3A4 = molecular target: T2, CYP3A4 (Homo sapiens, UniProt P08684); test: CYP3A4 inhibition assay; type: in vitro ADME; details: human liver microsomes
T2 construct: containing human liver microsomes (0.1 mg/mL); from tissue; host or cells: human liver microsomes
T2 sequence (P08684 whole entry): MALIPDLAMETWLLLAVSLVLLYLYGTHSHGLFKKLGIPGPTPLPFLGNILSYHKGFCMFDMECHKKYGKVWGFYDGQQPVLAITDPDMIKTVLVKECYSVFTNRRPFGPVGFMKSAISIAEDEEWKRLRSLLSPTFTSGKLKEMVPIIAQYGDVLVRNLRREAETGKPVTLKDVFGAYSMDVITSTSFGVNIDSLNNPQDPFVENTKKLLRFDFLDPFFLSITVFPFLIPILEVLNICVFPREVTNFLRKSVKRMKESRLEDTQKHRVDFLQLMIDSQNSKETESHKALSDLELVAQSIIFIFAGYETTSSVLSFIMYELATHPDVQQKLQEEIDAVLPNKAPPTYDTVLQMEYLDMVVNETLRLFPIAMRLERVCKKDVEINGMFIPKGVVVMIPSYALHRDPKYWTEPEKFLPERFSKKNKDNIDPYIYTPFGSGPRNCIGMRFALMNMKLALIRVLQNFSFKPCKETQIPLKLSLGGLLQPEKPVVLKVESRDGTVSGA
Protocol: In the CYP3A4 inhibition assay, in vitro IC50 of a test compound as direct inhibitor against CYP3A4 is determined, by measuring the inhibition of the turn-over of probe substrates of CYP3A4 (Midazolam and Testosterone) to their specific metabolites i.e., 1′-Hydroxymidazolam, 6β-Hydroxytestosterone, in human liver microsomes.
Examples 2-3 of the present application and example No.37 from WO2015/082533 were tested for CYP3A4 inhibition using two different probes: midazolam and testosterone.
Test compound dissolved in DMSO at selected concentrations was added to a phosphate buffer (50 mM, pH 7.4) containing human liver microsomes (0.1 mg/mL), MgCl (6 mM) and EDTA (0.5 mM) and CYP3A probe substrate, either midazolam (3 μM). Test compound was evaluated at the concentrations 1, 3, 10 and 30 μM and the final DMSO concentration in the incubation was 0.5%. After addition of […] NADPH the mixture was incubated at 37° C. for 10 min (midazolam) or 30 min (testosterone). The reaction was terminated by addition of cold CH3CN containing internal standard, centrifuged and formation of the CYP3A specific metabolite (either 1′-hydroxymidazolam or 6-β-hydroxytestosterone) was quantified by UPLC-MS/MS. The relative CYP3A activity at each test concentration was calculated and IC50 values determined using XLfit.

[3] = molecular target: T3, hERG (human Ether-à-go-go-Related Gene) potassium channel (Homo sapiens, UniProt Q12809); test: hERG channel patch-clamp assay; type: cell-based; details: CHO cells stably expressing hERG, whole-cell patch-clamp, room temperature; read-out: hERG inhibition Assay IC50
T3 construct: expressed in transfected cells
T3 sequence (Q12809 whole entry): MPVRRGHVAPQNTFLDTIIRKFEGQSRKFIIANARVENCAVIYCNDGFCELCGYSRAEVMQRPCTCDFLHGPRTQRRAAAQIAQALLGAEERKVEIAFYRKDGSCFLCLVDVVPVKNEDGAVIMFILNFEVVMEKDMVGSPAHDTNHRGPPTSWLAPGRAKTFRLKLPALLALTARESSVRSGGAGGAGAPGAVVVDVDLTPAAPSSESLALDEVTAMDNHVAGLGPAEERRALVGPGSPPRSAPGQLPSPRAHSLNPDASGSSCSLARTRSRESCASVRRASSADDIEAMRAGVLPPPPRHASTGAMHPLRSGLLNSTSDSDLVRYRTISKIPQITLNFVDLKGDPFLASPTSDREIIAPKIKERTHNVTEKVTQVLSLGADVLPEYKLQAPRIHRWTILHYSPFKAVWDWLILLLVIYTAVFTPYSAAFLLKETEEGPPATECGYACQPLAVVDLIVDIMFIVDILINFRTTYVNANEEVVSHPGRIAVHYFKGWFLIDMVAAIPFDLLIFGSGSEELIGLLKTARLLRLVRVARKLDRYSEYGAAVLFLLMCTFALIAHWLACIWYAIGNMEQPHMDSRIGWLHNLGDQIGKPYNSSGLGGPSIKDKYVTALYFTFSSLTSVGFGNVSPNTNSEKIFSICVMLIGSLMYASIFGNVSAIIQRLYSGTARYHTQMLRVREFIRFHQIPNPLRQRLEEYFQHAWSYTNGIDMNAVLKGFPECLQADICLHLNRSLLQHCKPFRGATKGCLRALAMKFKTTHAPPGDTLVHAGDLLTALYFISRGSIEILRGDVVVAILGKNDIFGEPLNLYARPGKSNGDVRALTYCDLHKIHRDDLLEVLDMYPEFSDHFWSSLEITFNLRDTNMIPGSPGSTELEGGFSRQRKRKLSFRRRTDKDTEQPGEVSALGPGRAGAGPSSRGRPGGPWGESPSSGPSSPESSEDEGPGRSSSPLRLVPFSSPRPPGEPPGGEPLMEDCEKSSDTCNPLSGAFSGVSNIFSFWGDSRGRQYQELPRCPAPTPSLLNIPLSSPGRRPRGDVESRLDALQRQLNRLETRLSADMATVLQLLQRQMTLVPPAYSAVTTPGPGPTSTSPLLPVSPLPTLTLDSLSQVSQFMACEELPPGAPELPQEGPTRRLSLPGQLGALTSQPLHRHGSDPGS
Protocol: The hERG assay, in which hERG is brought to expression in CHO cells, provides information of the interaction of a compound with the hERG channel. The amplitude of hERG potassium channel tail currents are recorded under control and the compound solution at different concentrations. Then the IC50 value is determined from the dose-response curve.
Examples 2-3 of the present application and example No. 37 of WO2015/082533 were tested in vitro against the hERG (human Ether-à-go-go-Related Gene) potassium channel.
Frozen CHO (Chinese hamster ovary) cells stably expressing hERG channels were thawed and seeded on glass coverslips in petri dishes. Cells were cultured in HAM's F-12 media supplemented with 10% fetal bovine serum, 100 IU/mL penicillin, 100 μg/mL streptomycin and 500 μg/mL G418 (Invitrogen, Carlsbad, Calif.) in an atmosphere of 95% air/5% CO2 at 37° C. CHO cells were ready for patch-clamping after culture for 1-5 days. hERG currents were recorded at room temperature using the whole-cell patch-clamp technique with an Axopatch 200B amplifier (Molecular Devices, Sunnyvale Calif.). […] Currents were analyzed using the pCLAMP suite of software (Molecular Devices). […]

[4] = midazolam probe, read-out: CYP3A4 inhibition Assay IC50, Midazolam probe
[5] = testosterone probe, read-out: CYP3A4 inhibition Assay IC50, Testosterone probe

Row | Compound | solubility at 24 h [1] [µg/mL] | IC50 (RORγ) [nM] | IC50 (CYP3A4; [4]) [µM] | IC50 (CYP3A4; [5]) [µM] | IC50 [2] [nM] | IC50 [3] [µM]
1 | O=C(Cc1ccc([S@@+]([O-])CC2CC2)cc1)Nc1ccc([C@@](O)(C(F)F)C(F)(F)F)cc1 (single isomer, unassigned) [Example 10] | 94.8 (≈ 205 µM) | – | – | – | – | –
2 | O=C(Cc1ccc([S@@+]([O-])CC2CC2)cc1)Nc1ccc([C@](O)(C(F)F)C(F)(F)F)cc1 (single isomer, unassigned) [Example 11] | 92.5 (≈ 200 µM) | – | – | – | – | –
3 | O=C(Cc1ccc([S@+]([O-])CC2CC2)cc1)Nc1ccc([C@@](O)(C(F)F)C(F)(F)F)cc1 (single isomer, unassigned) [Example 12] | 94.4 (≈ 205 µM) | – | – | – | – | –
4 | O=C(Cc1ccc(S(=O)(=O)CC2CC2)cc1)Nc1ccc([C@@](O)(C(F)F)C(F)(F)F)cc1 [Example 2, (+)-2-[4-(cyclopropylmethylsulfonyl)phenyl]-N-[4-[(1R)-1-(difluoromethyl)-2,2,2-trifluoro-1-hydroxy-ethyl]phenyl]acetamide] | < 1 | 39.8 | 24 | 13 | 63.1 | 14.2
5 | O=C(Cc1ccc(S(=O)(=O)CC2CC2)cc1)Nc1ccc([C@](O)(C(F)F)C(F)(F)F)cc1 [Example 3, (−)-2-[4-(cyclopropylmethylsulfonyl)phenyl]-N-[4-[(1S)-1-(difluoromethyl)-2,2,2-trifluoro-1-hydroxy-ethyl]phenyl]acetamide] | < 1 | 12.6 | > 30 | 16 | 25.1 | 11.2

Further lines, with some results ahead:

Row | solubility at 24 h [1] [µg/mL] | IC50 (RORγ) [nM] | IC50 (CYP3A4; [4]) [µM] | IC50 (CYP3A4; [5]) [µM] | Compound | IC50 [2] [nM] | IC50 [3] [µM]
6 | 93 (≈ 202 µM) | – | – | – | O=C(Cc1ccc([S@+]([O-])CC2CC2)cc1)Nc1ccc([C@](O)(C(F)F)C(F)(F)F)cc1 (single isomer, unassigned) [Example 13] | – | –
7 | 99.4 (≈ 215 µM) | – | – | – | O=C(Cc1ccc([S+]([O-])CC2CC2)cc1)Nc1ccc(C(O)(C(F)F)C(F)(F)F)cc1 (centres unmarked) [Example 9, 2-[4-(cyclopropylmethylsulfinyl)phenyl]-N-[4-[1-(difluoromethyl)-2,2,2-trifluoro-1-hydroxy-ethyl]phenyl]acetamide] | – | –
